Earlier results as cited in patent publication US20090022706A1, “SUBSTITUTED CYCLOHEXENES” (Auspex Pharmaceuticals, Inc., priority 2007, published 2009).

Tests used:
[1] = tested on: Toll-Like Receptor 4 (TLR4)-mediated cytokine production; settings: under pro-inflammatory conditions
[2] = tested on: nitric oxide (NO) production

production of various cytokines, such as IL-1β, IL-6, IL-12, and TNF-α [1]: inhibits
Structure (SMILES): CCOC(=O)C1=CCCC[C@H]1S(=O)(=O)Nc1ccc(F)cc1Cl [TAK-242, (R)-6-(2-chloro-4-fluoro-phenylsulfamoyl)-cyclohex-1-enecarboxylic acid ethyl ester]
in vitro production of nitric oxide (NO) [2]: inhibits
